# Molecular target: T1, Alpha-1B adrenergic receptor (Rattus norvegicus, UniProt P15823)
# T1 sequence (P15823 whole entry): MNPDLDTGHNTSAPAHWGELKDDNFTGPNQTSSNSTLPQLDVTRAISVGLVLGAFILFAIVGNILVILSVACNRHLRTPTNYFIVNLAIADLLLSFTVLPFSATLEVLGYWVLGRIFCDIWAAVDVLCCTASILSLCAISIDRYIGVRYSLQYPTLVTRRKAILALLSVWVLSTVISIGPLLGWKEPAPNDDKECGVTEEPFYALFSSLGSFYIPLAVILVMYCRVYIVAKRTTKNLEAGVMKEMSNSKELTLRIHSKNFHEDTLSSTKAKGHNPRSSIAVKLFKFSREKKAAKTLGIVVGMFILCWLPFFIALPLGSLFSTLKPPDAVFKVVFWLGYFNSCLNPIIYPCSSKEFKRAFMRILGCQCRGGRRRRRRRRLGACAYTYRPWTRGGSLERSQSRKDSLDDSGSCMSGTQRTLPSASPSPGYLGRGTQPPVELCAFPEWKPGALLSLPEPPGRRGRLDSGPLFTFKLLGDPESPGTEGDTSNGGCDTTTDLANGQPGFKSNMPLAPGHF
# Test: DRUGMATRIX: Alpha-1B adrenergic receptor radioligand binding (ligand: prazosin)
# Format: cell membranes, Wistar, Liver, Membrane
# Details: Not Active = under 50% inhibition at 10 µM
row,SMILES,IC50
1,Cc1c(-c2ccccc2)oc2c(C(=O)OCCN3CCCCC3)cccc2c1=O [FLAVOXATE],Not Active
2,O=c1[nH]cc(F)c(=O)[nH]1 [FLUOROURACIL],Not Active
3,COc1ccc2cc(CC(=O)O)ccc2c1,Not Active
4,CC[C@@]1(O)C(=O)OCc2c1cc1n(c2=O)Cc2cc3ccccc3nc2-1 [CAMPTOTHECIN],Not Active

# Molecular target: T2, Polyunsaturated fatty acid lipoxygenase ALOX15 (Oryctolagus cuniculus, UniProt P12530);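 note: inhibition of 15-lipoxygenase enzyme activity measured with linoleic acid as the substrate; in other assays of this panel Not Active means under 50% inhibition at 10 µM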
# T2 sequence (P12530 whole entry): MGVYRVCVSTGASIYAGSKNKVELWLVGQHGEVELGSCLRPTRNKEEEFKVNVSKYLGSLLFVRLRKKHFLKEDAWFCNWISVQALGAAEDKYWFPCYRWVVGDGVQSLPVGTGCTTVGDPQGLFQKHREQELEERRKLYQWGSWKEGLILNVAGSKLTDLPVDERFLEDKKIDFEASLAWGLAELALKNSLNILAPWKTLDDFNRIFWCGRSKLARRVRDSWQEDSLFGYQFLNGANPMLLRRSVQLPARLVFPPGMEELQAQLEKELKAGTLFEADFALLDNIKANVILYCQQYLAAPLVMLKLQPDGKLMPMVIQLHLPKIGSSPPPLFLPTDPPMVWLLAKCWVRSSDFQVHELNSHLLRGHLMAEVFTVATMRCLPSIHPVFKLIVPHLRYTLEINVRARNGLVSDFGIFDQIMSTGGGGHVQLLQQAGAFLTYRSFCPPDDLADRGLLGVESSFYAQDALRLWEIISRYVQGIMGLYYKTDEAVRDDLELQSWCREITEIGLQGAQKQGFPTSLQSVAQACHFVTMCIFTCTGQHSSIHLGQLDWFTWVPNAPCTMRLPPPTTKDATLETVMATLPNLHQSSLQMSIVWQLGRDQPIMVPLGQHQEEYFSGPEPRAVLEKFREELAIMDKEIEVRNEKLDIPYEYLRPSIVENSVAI
# Test: biochemical
# Format: tissue-based, Reticulocytes
# Details: reticulocytes
row,SMILES,IC50
1,Cc1c(-c2ccccc2)oc2c(C(=O)OCCN3CCCCC3)cccc2c1=O [FLAVOXATE],Not Active
2,O=c1[nH]cc(F)c(=O)[nH]1 [FLUOROURACIL],Not Active
3,COc1ccc2cc(CC(=O)O)ccc2c1,Not Active
4,CC[C@@]1(O)C(=O)OCc2c1cc1n(c2=O)Cc2cc3ccccc3nc2-1 [CAMPTOTHECIN],Not Active

# Molecular target: 5-hydroxytryptamine receptor 2B (Homo sapiens, UniProt P41595); note: in other assays of this panel Not Active means under 50% inhibition at 10 µM
# Sequence (P41595 whole entry): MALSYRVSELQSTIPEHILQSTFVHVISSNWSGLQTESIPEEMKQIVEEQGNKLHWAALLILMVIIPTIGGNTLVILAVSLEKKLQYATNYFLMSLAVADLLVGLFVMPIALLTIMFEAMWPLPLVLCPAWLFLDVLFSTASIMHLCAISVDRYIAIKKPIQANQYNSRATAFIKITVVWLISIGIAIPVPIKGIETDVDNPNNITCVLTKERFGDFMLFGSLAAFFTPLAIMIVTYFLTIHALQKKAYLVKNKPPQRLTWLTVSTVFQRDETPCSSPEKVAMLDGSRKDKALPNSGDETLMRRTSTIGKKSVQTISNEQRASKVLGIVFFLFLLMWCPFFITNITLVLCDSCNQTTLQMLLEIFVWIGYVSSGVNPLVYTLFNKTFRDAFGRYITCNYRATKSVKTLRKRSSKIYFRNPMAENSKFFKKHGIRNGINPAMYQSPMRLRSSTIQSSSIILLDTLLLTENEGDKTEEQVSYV
# Test: not given
# Format: cell membranes, CHO-K1, Membrane
# Details: cho-k1
row,SMILES,IC50
1,Cc1c(-c2ccccc2)oc2c(C(=O)OCCN3CCCCC3)cccc2c1=O [FLAVOXATE],Not Active
2,O=c1[nH]cc(F)c(=O)[nH]1 [FLUOROURACIL],Not Active
3,COc1ccc2cc(CC(=O)O)ccc2c1,Not Active

# Same assay, conditions: read-out: IC50
row,SMILES,IC50 [nM]
1,CC[C@@]1(O)C(=O)OCc2c1cc1n(c2=O)Cc2cc3ccccc3nc2-1 [CAMPTOTHECIN],970

# Same assay, conditions: read-out: Ki
row,SMILES,Ki [nM]
1,CC[C@@]1(O)C(=O)OCc2c1cc1n(c2=O)Cc2cc3ccccc3nc2-1 [CAMPTOTHECIN],617

# Molecular target: D(1A) dopamine receptor (Homo sapiens, UniProt P21728)
# Sequence (P21728 whole entry): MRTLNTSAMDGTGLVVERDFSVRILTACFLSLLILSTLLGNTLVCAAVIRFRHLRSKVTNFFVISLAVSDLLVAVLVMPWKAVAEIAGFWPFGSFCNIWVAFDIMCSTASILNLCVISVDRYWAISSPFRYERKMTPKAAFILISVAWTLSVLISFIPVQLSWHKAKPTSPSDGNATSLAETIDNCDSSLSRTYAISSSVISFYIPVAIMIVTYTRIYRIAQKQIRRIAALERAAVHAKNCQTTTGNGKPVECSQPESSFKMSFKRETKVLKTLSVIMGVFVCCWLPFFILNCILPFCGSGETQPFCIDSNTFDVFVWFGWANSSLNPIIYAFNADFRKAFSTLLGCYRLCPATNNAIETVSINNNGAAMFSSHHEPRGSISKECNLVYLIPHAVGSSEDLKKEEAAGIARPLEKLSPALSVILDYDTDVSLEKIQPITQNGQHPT
# Test: DRUGMATRIX: Dopamine D1 radioligand binding (ligand: [3H] SCH-23390)
# Format: cell membranes, CHO, Membrane
# Details: cho; Not Active = under 50% inhibition at 10 µM
row,SMILES,IC50
1,Cc1c(-c2ccccc2)oc2c(C(=O)OCCN3CCCCC3)cccc2c1=O [FLAVOXATE],Not Active
2,O=c1[nH]cc(F)c(=O)[nH]1 [FLUOROURACIL],Not Active
3,COc1ccc2cc(CC(=O)O)ccc2c1,Not Active
4,CC[C@@]1(O)C(=O)OCc2c1cc1n(c2=O)Cc2cc3ccccc3nc2-1 [CAMPTOTHECIN],Not Active

# Molecular target: Cytochrome P450 2E1 (Homo sapiens, UniProt P05181); note: in other assays of this panel Not Active means under 50% inhibition at 10 µM
# Sequence (P05181 whole entry): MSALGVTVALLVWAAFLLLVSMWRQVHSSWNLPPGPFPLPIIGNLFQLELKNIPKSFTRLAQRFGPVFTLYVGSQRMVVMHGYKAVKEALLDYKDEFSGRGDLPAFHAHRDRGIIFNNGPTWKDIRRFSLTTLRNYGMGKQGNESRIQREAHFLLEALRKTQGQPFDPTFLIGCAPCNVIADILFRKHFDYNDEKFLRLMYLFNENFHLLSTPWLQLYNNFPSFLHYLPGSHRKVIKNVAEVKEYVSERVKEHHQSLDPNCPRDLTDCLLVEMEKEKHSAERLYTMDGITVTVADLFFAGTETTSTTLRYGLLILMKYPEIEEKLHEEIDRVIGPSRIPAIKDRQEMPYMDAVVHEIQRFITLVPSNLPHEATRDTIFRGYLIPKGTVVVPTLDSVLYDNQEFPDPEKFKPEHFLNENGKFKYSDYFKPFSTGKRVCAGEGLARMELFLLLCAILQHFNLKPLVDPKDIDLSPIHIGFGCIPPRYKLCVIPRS
# Test: not given
# Details: bti-tn-5b1-4
SMILES,IC50,Ki
Cc1c(-c2ccccc2)oc2c(C(=O)OCCN3CCCCC3)cccc2c1=O [FLAVOXATE],Not Active,Not Active
O=c1[nH]cc(F)c(=O)[nH]1 [FLUOROURACIL],Not Active,Not Active
COc1ccc2cc(CC(=O)O)ccc2c1,Not Active,Not Active
CC[C@@]1(O)C(=O)OCc2c1cc1n(c2=O)Cc2cc3ccccc3nc2-1 [CAMPTOTHECIN],Not Active,Not Active

# System: not listed separately
# Test: DRUGMATRIX: Calcium Channel Type L, Benzothiazepine radioligand binding (ligand: [3H] Diltiazem)
# Format: cell membranes, Rattus norvegicus, Wistar, Brain, Membrane
# Details: Not Active = under 50% inhibition at 10 µM
SMILES,IC50,Ki
Cc1c(-c2ccccc2)oc2c(C(=O)OCCN3CCCCC3)cccc2c1=O [FLAVOXATE],Not Active,Not Active
O=c1[nH]cc(F)c(=O)[nH]1 [FLUOROURACIL],Not Active,Not Active
COc1ccc2cc(CC(=O)O)ccc2c1,Not Active,Not Active
CC[C@@]1(O)C(=O)OCc2c1cc1n(c2=O)Cc2cc3ccccc3nc2-1 [CAMPTOTHECIN],Not Active,Not Active

# Molecular target: 5-hydroxytryptamine receptor 6 (Homo sapiens, UniProt P50406); note: in other assays of this panel Not Active means under 50% inhibition at 10 µM
# Sequence (P50406 whole entry): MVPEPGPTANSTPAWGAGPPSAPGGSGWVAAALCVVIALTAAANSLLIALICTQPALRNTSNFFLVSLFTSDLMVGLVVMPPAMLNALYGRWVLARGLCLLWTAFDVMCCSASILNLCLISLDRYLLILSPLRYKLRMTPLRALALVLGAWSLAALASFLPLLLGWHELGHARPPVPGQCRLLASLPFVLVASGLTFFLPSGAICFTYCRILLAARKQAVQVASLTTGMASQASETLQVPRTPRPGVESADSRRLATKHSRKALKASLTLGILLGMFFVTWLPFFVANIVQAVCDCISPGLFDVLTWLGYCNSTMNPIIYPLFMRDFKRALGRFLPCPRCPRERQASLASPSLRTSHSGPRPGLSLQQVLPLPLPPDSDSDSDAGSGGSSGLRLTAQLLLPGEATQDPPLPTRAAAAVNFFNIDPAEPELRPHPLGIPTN
# Test: not given
# Format: cell membranes, HeLa, Membrane
# Details: hela
row,SMILES,IC50
1,Cc1c(-c2ccccc2)oc2c(C(=O)OCCN3CCCCC3)cccc2c1=O [FLAVOXATE],Not Active
2,O=c1[nH]cc(F)c(=O)[nH]1 [FLUOROURACIL],Not Active
3,COc1ccc2cc(CC(=O)O)ccc2c1,Not Active
4,CC[C@@]1(O)C(=O)OCc2c1cc1n(c2=O)Cc2cc3ccccc3nc2-1 [CAMPTOTHECIN],Not Active

# Molecular target: Histamine H2 receptor (Homo sapiens, UniProt P25021); note: in other assays of this panel Not Active means under 50% inhibition at 10 µM
# Sequence (P25021 whole entry): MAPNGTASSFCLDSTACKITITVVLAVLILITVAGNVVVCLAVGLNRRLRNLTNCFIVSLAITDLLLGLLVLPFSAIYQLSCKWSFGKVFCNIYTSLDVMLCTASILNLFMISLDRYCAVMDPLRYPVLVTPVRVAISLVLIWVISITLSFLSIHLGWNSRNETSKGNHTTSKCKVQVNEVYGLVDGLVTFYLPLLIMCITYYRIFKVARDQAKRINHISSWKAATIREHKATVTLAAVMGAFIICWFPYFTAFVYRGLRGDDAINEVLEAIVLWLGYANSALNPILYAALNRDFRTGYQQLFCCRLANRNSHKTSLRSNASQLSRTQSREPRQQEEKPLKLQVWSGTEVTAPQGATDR
# Test: not given
# Format: cell membranes, CHO-K1, Membrane
# Details: cho-k1
row,SMILES,IC50
1,Cc1c(-c2ccccc2)oc2c(C(=O)OCCN3CCCCC3)cccc2c1=O [FLAVOXATE],Not Active
2,O=c1[nH]cc(F)c(=O)[nH]1 [FLUOROURACIL],Not Active
3,COc1ccc2cc(CC(=O)O)ccc2c1,Not Active
4,CC[C@@]1(O)C(=O)OCc2c1cc1n(c2=O)Cc2cc3ccccc3nc2-1 [CAMPTOTHECIN],Not Active

# Molecular target: Cytochrome P450 2D6 (Homo sapiens, UniProt P10635); note: in other assays of this panel Not Active means under 50% inhibition at 10 µM
# Sequence (P10635 whole entry): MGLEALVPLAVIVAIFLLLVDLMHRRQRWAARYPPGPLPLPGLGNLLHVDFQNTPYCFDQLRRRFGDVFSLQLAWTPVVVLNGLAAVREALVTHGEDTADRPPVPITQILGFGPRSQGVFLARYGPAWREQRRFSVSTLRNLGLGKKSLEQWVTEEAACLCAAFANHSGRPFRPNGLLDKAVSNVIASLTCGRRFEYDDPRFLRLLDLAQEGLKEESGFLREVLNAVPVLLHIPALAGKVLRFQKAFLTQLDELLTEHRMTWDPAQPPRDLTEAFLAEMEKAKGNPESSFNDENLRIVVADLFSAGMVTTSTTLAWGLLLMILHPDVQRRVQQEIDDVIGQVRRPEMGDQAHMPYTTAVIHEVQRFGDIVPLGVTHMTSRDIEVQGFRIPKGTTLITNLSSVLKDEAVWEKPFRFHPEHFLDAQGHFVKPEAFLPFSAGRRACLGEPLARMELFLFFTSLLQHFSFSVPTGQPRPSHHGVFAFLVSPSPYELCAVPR
# Test: not given
# Details: bti-tn-5b1-4
SMILES,IC50,Ki
Cc1c(-c2ccccc2)oc2c(C(=O)OCCN3CCCCC3)cccc2c1=O [FLAVOXATE],Not Active,Not Active
O=c1[nH]cc(F)c(=O)[nH]1 [FLUOROURACIL],Not Active,Not Active
COc1ccc2cc(CC(=O)O)ccc2c1,Not Active,Not Active
CC[C@@]1(O)C(=O)OCc2c1cc1n(c2=O)Cc2cc3ccccc3nc2-1 [CAMPTOTHECIN],Not Active,Not Active

# System: not listed separately
# Test: DRUGMATRIX: GABAA, Chloride Channel, TBOB radioligand binding (ligand: [3H] TBOB)
# Format: cell membranes, Rattus norvegicus, Wistar, Cerebral cortex, Membrane
# Details: Not Active = under 50% inhibition at 10 µM
SMILES,IC50,Ki
Cc1c(-c2ccccc2)oc2c(C(=O)OCCN3CCCCC3)cccc2c1=O [FLAVOXATE],Not Active,Not Active
O=c1[nH]cc(F)c(=O)[nH]1 [FLUOROURACIL],Not Active,Not Active
COc1ccc2cc(CC(=O)O)ccc2c1,Not Active,Not Active
CC[C@@]1(O)C(=O)OCc2c1cc1n(c2=O)Cc2cc3ccccc3nc2-1 [CAMPTOTHECIN],Not Active,Not Active

# Molecular target: Beta-3 adrenergic receptor (Homo sapiens, UniProt P13945)
# Sequence (P13945 whole entry): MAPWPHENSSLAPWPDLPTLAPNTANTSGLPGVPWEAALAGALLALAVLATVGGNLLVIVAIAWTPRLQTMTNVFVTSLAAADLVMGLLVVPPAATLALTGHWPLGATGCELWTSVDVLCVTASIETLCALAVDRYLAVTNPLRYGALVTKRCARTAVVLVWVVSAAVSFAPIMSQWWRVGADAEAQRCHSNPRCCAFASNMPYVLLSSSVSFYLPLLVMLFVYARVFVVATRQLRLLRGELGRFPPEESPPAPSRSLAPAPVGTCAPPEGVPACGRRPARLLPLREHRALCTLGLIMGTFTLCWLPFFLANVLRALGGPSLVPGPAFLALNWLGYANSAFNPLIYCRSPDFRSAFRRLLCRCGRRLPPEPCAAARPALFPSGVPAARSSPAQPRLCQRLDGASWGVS
# Test: DRUGMATRIX: Adrenergic beta3 radioligand binding (ligand: [125I] Cyanopindolol)
# Format: cell membranes, HEK293, Membrane
# Details: hek293; Not Active = under 50% inhibition at 10 µM
row,SMILES,IC50
1,Cc1c(-c2ccccc2)oc2c(C(=O)OCCN3CCCCC3)cccc2c1=O [FLAVOXATE],Not Active
2,O=c1[nH]cc(F)c(=O)[nH]1 [FLUOROURACIL],Not Active
3,COc1ccc2cc(CC(=O)O)ccc2c1,Not Active
4,CC[C@@]1(O)C(=O)OCc2c1cc1n(c2=O)Cc2cc3ccccc3nc2-1 [CAMPTOTHECIN],Not Active

# Molecular target: T3, C-X-C chemokine receptor type 2 (Homo sapiens, UniProt P25025); note: in other assays of this panel Not Active means under 50% inhibition at 10 µM
# T3 sequence (P25025 whole entry): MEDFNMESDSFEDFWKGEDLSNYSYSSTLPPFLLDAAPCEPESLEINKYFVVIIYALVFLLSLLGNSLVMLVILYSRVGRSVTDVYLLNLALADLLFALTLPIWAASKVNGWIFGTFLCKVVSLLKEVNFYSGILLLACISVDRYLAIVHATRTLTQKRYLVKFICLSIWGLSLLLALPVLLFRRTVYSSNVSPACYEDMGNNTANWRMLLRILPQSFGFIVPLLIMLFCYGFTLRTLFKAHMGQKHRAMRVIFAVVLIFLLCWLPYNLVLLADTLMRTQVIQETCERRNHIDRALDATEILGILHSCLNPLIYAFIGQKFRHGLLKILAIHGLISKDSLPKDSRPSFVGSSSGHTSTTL
# Test: not given
# Format: cell membranes, Membrane
# Details: cho-k1
row,SMILES,IC50
1,Cc1c(-c2ccccc2)oc2c(C(=O)OCCN3CCCCC3)cccc2c1=O [FLAVOXATE],Not Active
2,O=c1[nH]cc(F)c(=O)[nH]1 [FLUOROURACIL],Not Active
3,COc1ccc2cc(CC(=O)O)ccc2c1,Not Active
4,CC[C@@]1(O)C(=O)OCc2c1cc1n(c2=O)Cc2cc3ccccc3nc2-1 [CAMPTOTHECIN],Not Active

# Molecular target: T4, Adenosine receptor A3 (Homo sapiens, UniProt P0DMS8)
# T4 sequence (P0DMS8 whole entry): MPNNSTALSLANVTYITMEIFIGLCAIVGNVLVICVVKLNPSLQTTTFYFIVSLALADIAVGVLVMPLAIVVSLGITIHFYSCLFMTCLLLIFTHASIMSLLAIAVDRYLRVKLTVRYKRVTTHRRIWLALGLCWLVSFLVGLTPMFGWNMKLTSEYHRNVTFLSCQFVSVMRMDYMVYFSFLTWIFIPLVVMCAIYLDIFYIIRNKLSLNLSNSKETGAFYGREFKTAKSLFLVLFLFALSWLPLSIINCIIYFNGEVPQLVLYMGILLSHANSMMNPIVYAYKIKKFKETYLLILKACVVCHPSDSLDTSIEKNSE
# Test: not given
# Format: cell membranes, CHO-K1, Membrane
# Details: cho-k1
row,SMILES,IC50
1,Cc1c(-c2ccccc2)oc2c(C(=O)OCCN3CCCCC3)cccc2c1=O [FLAVOXATE],Not Active
2,O=c1[nH]cc(F)c(=O)[nH]1 [FLUOROURACIL],Not Active
3,COc1ccc2cc(CC(=O)O)ccc2c1,Not Active
4,CC[C@@]1(O)C(=O)OCc2c1cc1n(c2=O)Cc2cc3ccccc3nc2-1 [CAMPTOTHECIN],Not Active

# From ChEMBL document CHEMBL1909046, “DrugMatrix in vitro pharmacology data”
